From publication PMC12817916, “A small-molecule HSP90 inhibitor, NVP-HSP990, alleviates rotavirus infection” (Journal of Virology, 2025)
Read-outs that look alike come from different tables or passages of the source. One block for each compound: values may come before it.

Assays:
[1] = Cytotoxicity assay (CCK-8); assay type: cell-based, Human; conditions: human
Protocol: (§1) To evaluate the cytotoxicity of different HSP90 inhibitors in vitro, 10,000 MA104 cells, 30,000 Caco-2 cells, and 80,000 HT-29 cells in 100 µL complete DMEM medium were seeded in 96-well plates and cultured at 37°C and 5% CO2 for 24 h to reach about 100% confluence, and a cell-free control was also set. After removing the initial medium, 100 µL of complete DMEM medium containing the indicated concentrations of drugs was added to each well, and the plates were incubated at 37°C and 5% CO2. Twenty-four hours later, the drug-containing medium was replaced with 100 µL fresh complete DMEM medium plus 10 µL 5 mM CCK-8 reagent (Beyotime, China), and OD450 absorbance of each well was detected 3 h later using a microplate reader (Gene Company Limited, China). Relative cell viability rate = OD450 (drug-treated cells − cell-free control) / OD450 (0 µM drug-treated cells − cell-free control).
(§2) The 50% cytotoxic concentration (CC50) values were determined by nonlinear regression (curve fit) analysis in GraphPad Prism 9.0 (GraphPad Software). Dose-response data (drug concentrations as X-axis and normalized cell viability percentages as Y-axis) were fitted to a Dose-response Inhibition model ("[Inhibitor] vs. normalized response-Variable slope"). The curve was constrained to a bottom limit of 0% viability. The CC50 value was automatically calculated as the X-intercept at Y=50%. Model adequacy was validated using goodness-of-fit metrics (R²≥0.95), 95% confidence intervals, and residual distribution analysis. Final CC50 values were derived from three independent biological replicates and reported as mean ± SEM.

[2] = system: HT-29 cells; assay: Cytotoxicity assay (CCK-8); assay type: cell-based, Human; conditions: 24 h
Protocol: as §1, §2

[3] = system: Caco-2 cells; assay: Cytotoxicity assay (CCK-8); assay type: cell-based, Human; conditions: 24 h
Protocol: as §1, §2

[4] = Cytotoxicity assay (CCK-8); assay type: cell-based, Rhesus monkey; conditions: rhesus monkey
Protocol: as §1, §2

[5] = system: MA104 cells; assay: Cytotoxicity assay (CCK-8); assay type: cell-based, Rhesus monkey; conditions: 24 h
Protocol: as §1, §2

[6] = system: RV Wa (G1P[8]) strain; assay: In vitro assay of RV replication inhibition (PFA); assay type: cell-based, Rotavirus; conditions: Rotavirus
Protocol: (§3) For analysis of effects of different […] on RV replication in vitro, 10,000 MA104 cells, 30,000 Caco-2 cells, and 80,000 HT-29 cells in 100 µL complete DMEM medium were seeded in 96-well plates and cultured at 37°C and 5% CO2 for 24 h. Then the cells were infected with RV Wa or SA11 strains (MOI = 1 (PFU/cell)) for 1 h. After removing the viruses and washing cells two times with DMEM, 100 µL DMEM containing the indicated concentrations of drugs was added to each well, and the plates were incubated at 37°C and 5% CO2. At 24 h p.i., the infected cells and culture medium were collected, frozen/thawed twice, and subjected to centrifugation at 1,000 × g for 3 min at room temperature. Then, the supernatant was subjected to analysis of viral load by PFA. […] Dose-response data (drug concentrations as x-axis and normalized inhibition percentages as y-axis) were fitted to a dose-response inhibition model ([Inhibitor] vs normalized response – Variable slope). […] Model adequacy was validated using goodness-of-fit metrics (R^2 ≥ 0.95), 95% confidence intervals, and residual distribution analysis.
(§4) Wa/SA11 strains were titrated by PFA, which was carried out as described (3) with some modification. Briefly, confluent monolayers of MA104 cells in 24-well tissue culture plates were infected with 100 µL supernatants containing infectious RV particles which were serially diluted (10^1, 10^2, 10^3, and 10^4) with DMEM containing 1 µg/mL trypsin and penicillin (10,000 U/mL)-streptomycin (5 µg/mL) (DMEM-T) for 1 h at 37°C. Then 400 µL agarose overlay (0.8% agarose in 1×DMEM-T) was added and the plates were incubated at 37℃ and 5% CO2 for 5 days. The cells in each well were fixed by 1 mL 4% paraformaldehyde (Sangon Biotech, China) overnight (> 12 h) at room temperature. Then, the paraformaldehyde and agarose were removed and the monolayers were stained with 0.5 ml of a 1% (v/v) crystal violet (Sangon Biotech, China) diluted in distilled water for 10 min at room temperature. Then, the plates were drained and dried, and the plaques were enumerated. As the EDIM strain is not able to grow in cell culture, it was titrated by qPCR analysis as described (4) with EDIM VP6 gene as the target.

[7] = system: RV SA11 (G3P[2]) strain; assay: In vitro assay of RV replication inhibition (PFA); assay type: cell-based, Rotavirus; conditions: Rotavirus
Protocol: as §3, §4

[8] = Caco-2, 24 h, read-out: IC50 (Fig 1B plot)
[9] = HT-29, 24 h, read-out: IC50 (Fig 1B plot)
[10] = MA104, 24 h, read-out: IC50 (Fig 1B plot)

SMILES: C=CCNC1=C2C[C@@H](C)C[C@H](OC)[C@H](O)[C@@H](C)/C=C(\C)[C@H](OC(N)=O)[C@@H](OC)/C=C\C=C(/C)C(=O)NC(=CC1=O)C2=O [17-AAG, 17-allylamino-17-demethoxygeldanamycin]
CC50 at 24 h ([1]; Caco-2 cells, CCK-8): < 40000 nM | CC50 at 24 h ([1]; HT-29 cells, 24 h, CCK-8, read-out: CC50): < 40000 nM | CC50 ([2]; HT-29 cells, CCK-8, read-out: CC50): 20700 ± 6030 nM | CC50 ([3]; Caco-2 cells, CCK-8, read-out: CC50): 28600 ± 9730 nM | CC50 at 24 h ([4]; MA104 cells, 24 h, CCK-8, read-out: CC50): < 40000 nM | CC50 ([5]; MA104 cells, CCK-8, read-out: CC50): 23300 ± 6720 nM | IC50 ([6]; Caco-2, 24 h): 162 ± 34.2 nM | IC50 [6, 8]: 172 nM | IC50 ([6]; HT-29, 24 h): 26.4 ± 20.5 nM | IC50 [6, 9]: 21.9 nM | IC50 ([6]; MA104, 24 h): 6.81 ± 2.18 nM | IC50 [6, 10]: 6.58 nM | IC50 ([7]; Caco-2, 24 h): 116 ± 33.3 nM | IC50 [7, 8]: 113 nM | IC50 ([7]; HT-29, 24 h): 54 ± 7.14 nM | IC50 [7, 9]: 53.9 nM | IC50 ([7]; MA104, 24 h): 3.52 ± 0.6 nM | IC50 [7, 10]: 3.51 nM

IC50 ([6]; Wa strain in Caco-2 cells, MOI = 1, 24 h p.i., PFA, read-out: IC50): 91.7 ± 6.95 nM | IC50 ([6]; Wa strain in Caco-2 cells, representative experiment, 24 h, PFA, read-out: IC50 (Fig 1B plot)): 92 nM | IC50 ([6]; Wa strain in HT-29 cells, MOI = 1, 24 h p.i., PFA, read-out: IC50): 16.5 ± 4.41 nM | IC50 ([6]; Wa strain in HT-29 cells, representative experiment, 24 h, PFA, read-out: IC50 (Fig 1B plot)): 16.1 nM | IC50 ([6]; Wa strain in MA104 cells, MOI = 1, 24 h p.i., PFA, read-out: IC50): 10.5 ± 3.57 nM | IC50 ([6]; Wa strain in MA104 cells, representative experiment, 24 h, PFA, read-out: IC50 (Fig 1B plot)): 10.1 nM | IC50 ([7]; SA11 strain in Caco-2 cells, MOI = 1, 24 h p.i., PFA, read-out: IC50): 83.8 ± 20.6 nM | IC50 ([7]; SA11 strain in Caco-2 cells, representative experiment, 24 h, PFA, read-out: IC50 (Fig 1B plot)): 83.7 nM | IC50 ([7]; SA11 strain in HT-29 cells, MOI = 1, 24 h p.i., PFA, read-out: IC50): 48.2 ± 34.8 nM | IC50 ([7]; SA11 strain in HT-29 cells, representative experiment, 24 h, PFA, read-out: IC50 (Fig 1B plot)): 41.6 nM | IC50 ([7]; SA11 strain in MA104 cells, MOI = 1, 24 h p.i., PFA, read-out: IC50): 3.01 ± 0.77 nM | IC50 ([7]; SA11 strain in MA104 cells, representative experiment, 24 h, PFA, read-out: IC50 (Fig 1B plot)): 2.94 nM
SMILES: COC1=C2C[C@@H](C)C[C@H](OC)[C@H](O)[C@@H](C)/C=C(\C)[C@H](OC(N)=O)[C@@H](OC)/C=C\C=C(/C)C(=O)NC(=CC1=O)C2=O [GA, geldanamycin]
CC50 at 24 h ([1]; CC50): < 40000 nM | CC50 ([2]; human): 29200 ± 5060 nM | CC50 ([3]; human): 20000 ± 3070 nM | CC50 at 24 h ([4]; CC50): < 40000 nM | CC50 ([5]; rhesus monkey): 26600 ± 5550 nM
